Laboratory results as given in patent publication US20050101595A1, “N-containing cycloalkyl-substituted amino-thiazole derivatives and pharmaceutical compositions for inhibiting cell proliferation and methods for their use” (PFIZER INC., priority 2003, published 2005).
pIC50, pKi: −log10 of the molar value. Where a name gives a salt, the structure may show the parent alone. Read-outs that look alike come from different tables or passages of the source.

What was measured:
[1] = target: human CDK4 and genetically truncated (1-264) cyclin D3 (Homo sapiens, UniProt P11802); assay: Inhibition of CDK4/Cyclin D Retinoblastoma Kinase Activity; format: biochemical; details: for pKi: apparent Ki, CDK4/truncated cyclin D3, Rb fragment substrate, 25 μM ATP
Experimental: Cyclin-dependent kinase activity was measured by quantifying the enzyme-catalyzed, time-dependent incorporation of radioactive phosphate from [^32P]ATP or [^33P]ATP into a protein substrate. Unless noted otherwise, assays were performed in 96-well plates in a total volume of 50 μL, in the presence of 10 mM HEPES (N-[2-hydroxyethyl]piperazine-N′-[2-ethanesulfonic acid]) (pH 7.4), 10 mM MgCl2, 25 μM adenosine triphosphate (ATP), 1 mg/mL ovalbumin, 5 μg/mL leupeptin, 1 mM dithiothreitol, 10 mM β-glycerophosphate, 0.1 mM sodium vanadate, 1 mM sodium fluoride, 2.5 mM ethylene glycol-bis(β-aminoethyl ether)-N,N,N′N′-tetraacetic acid (EGTA), 2% (v/v) dimethylsulfoxide, and 0.03-0.4 μCi [^32/33P]ATP per reaction. Reactions were initiated with enzyme, incubated at 30° C., and terminated after 20 minutes by the addition of ethylenediaminetetraacetic acid (EDTA) to 250 mM. The phosphorylated substrate was then captured on a nitrocellulose or phosphocellulose membrane using a 96-well filtration manifold, and unincorporated radioactivity was removed by repeated washing with 0.85% phosphoric acid. Radioactivity was quantified by exposing the dried membranes to a phosphorimager.
Inhibition was measured relative to control wells that contained all reaction components including 2% (v/v) DMSO but no compound, after subtraction of background radioactivity measured in the absence of enzyme. Apparent Ki values of discrete compounds were measured by assaying enzyme activity in the presence of different inhibitor compound concentrations and subtracting the background radioactivity measured in the absence of enzyme. The kinetic parameters (kcat, Km for ATP) were measured for each enzyme under the usual assay conditions by determining the dependence of initial rates on ATP concentration. Inhibition data were fit to an equation for competitive inhibition using Kaleidagraph (Synergy Software), or were fit to an equation for competitive tight-binding inhibition using the software KineTic (BioKin, Ltd.).
Inhibition of CDK4/Cyclin D Retinoblastoma Kinase Activity:
A complex of human CDK4 and genetically truncated (1-264) cyclin D3 was purified using traditional biochemical chromatographic techniques from insect cells that had been co-infected with the corresponding baculovirus expression vectors (see e.g., Meijer and Kim, “Chemical Inhibitors of Cyclin-Dependent Kinases,” Methods in Enzymol,. vol. 283 (1997), pp. 113-128.). The enzyme complex (5 nM) was assayed with 0.3-0.5 μg of purified recombinant retinoblastoma protein fragment (Rb) as a substrate. The engineered Rb fragment (residues 386-928 of the native retinoblastoma protein; 62.3 kDa) contains the majority of the phosphorylation sites found in the native 106-kDa protein, as well as a tag of six histidine residues for ease of purification. Phosphorylated Rb substrate was captured by microfiltration on a nitrocellulose membrane and quantified using a phosphorimager as described above. For measurement of tight-binding inhibitors, the assay duration was extended to 60 minutes, during which the time-dependence of product formation was linear and initial rate conditions were met.

CDK2/Cyclin A = CDK2/Cyclin A (Homo sapiens, UniProt P24941); assay: Inhibition of CDK2/Cyclin A Retinoblastoma Kinase Activity; format: biochemical; details: for pKi: apparent Ki, CDK2/proteolyzed cyclin A, Rb fragment substrate, 25 μM ATP; for CDK2 % Inhibition At 0.03 μM: Table 2
Method in brief: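 Baculovirus-expressed CDK2 complexed with proteolyzed cyclin A (10 or 19 nM), Rb fragment substrate, 25 μM [32P/33P]ATP, HEPES pH 7.4, 30 °C for 60 or 75 min under initial-rate conditions. Filter capture and phosphorimager readout; apparent Ki fitted to competitive or tight-binding competitive inhibition.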

HCT-116 cell line = assay: Inhibition of cell growth, tetrazolium salt (MTT) assay; format: cell-based; details: for pIC50: Homo sapiens, HCT-116, 120 h, MTT, three to five days, read-out: HCT-116 IC50; for HCT-116 % Inhibition at 0.25 μM: 0.25 μM compound
Method in brief: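 Growth inhibition by MTT reduction at 540 nm (0.2 mg/mL, 4 h at 37° C, formazan dissolved in DMSO), normalized to cells given only 0.5% v/v DMSO. HCT-116 cultures in McCoy's 5A were dosed 4 h post-plating and kept three to five days at 37° C, 5% CO2.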

[2] = 0.1 μM compound, HCT-116, Table 4

Chain of human CDK4 and genetically truncated (1-264) cyclin D3 (P11802 whole entry, the tested form may be a part): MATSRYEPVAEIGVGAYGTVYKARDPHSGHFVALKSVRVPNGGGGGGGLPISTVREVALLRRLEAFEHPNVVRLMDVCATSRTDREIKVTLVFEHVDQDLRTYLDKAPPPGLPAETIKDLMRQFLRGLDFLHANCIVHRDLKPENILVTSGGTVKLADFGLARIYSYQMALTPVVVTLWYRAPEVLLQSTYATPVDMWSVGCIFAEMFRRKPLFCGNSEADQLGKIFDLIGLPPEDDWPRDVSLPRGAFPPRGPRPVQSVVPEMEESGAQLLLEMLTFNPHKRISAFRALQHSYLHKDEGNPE
Chain of human CDK4 and genetically truncated (1-264) cyclin D3 (P30281 1-264 partner): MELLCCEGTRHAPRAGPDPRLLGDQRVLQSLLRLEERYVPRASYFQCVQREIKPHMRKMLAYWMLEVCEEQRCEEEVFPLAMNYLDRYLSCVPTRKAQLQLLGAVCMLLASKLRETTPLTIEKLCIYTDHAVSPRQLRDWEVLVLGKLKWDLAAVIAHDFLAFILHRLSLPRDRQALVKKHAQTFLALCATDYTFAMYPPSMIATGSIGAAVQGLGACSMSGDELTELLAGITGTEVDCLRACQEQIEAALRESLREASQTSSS

Work on `Nc1nc(NC2CCN(S(=O)(=O)c3ccc(OCCO)nc3)CC2)sc1C(=O)c1c(F)cccc1F` [Example H4, 1-(4-Amino-2-{1-[6-(2-hydroxy-ethoxy)-pyridine-3-sulfonyl]-piperidin-4-ylamino}-thiazol-5-yl)-1-(2,6-difluoro-phenyl)-methanone] yielded a pKi [1] of 8.60, a pKi (CDK2/Cyclin A) of 9.15 and a pIC50 (HCT-116 cell line; first HCT-116 column (c4)) of 7.00. It also gave a pIC50 (HCT-116 cell line; second HCT-116 column (c5)) of 6.30.

For `N=C(N)c1ccc(S(=O)(=O)N2CCC(Nc3nc(N)c(C(=O)c4c(F)cccc4F)s3)CC2)cc1` [Example J3, 4-(4-{4-Amino-5-[1-(2,6-difluoro-phenyl)-methanoyl]-thiazol-2-ylamino}-piperidine-1-sulfonyl)-benzamidine], the pKi [1] was 9.60, the pKi (CDK2/Cyclin A) was over 9.00 and the pIC50 (HCT-116 cell line; first HCT-116 column (c4)) was under 5.30. The pIC50 (HCT-116 cell line; second HCT-116 column (c5)) was under 5.30.

With `Cc1ccc(Sc2ncccc2C(=O)N2CCC(Nc3nc(N)c(C(=O)c4c(F)cccc4F)s3)CC2)cc1` [Example R42] the “CDK4 % Inhibition at 0.03 μM” value ([1]; at 0.03 μM) was 53%, the “CDK2 % Inhibition at 0.03 μM” value (CDK2/Cyclin A; at 0.03 μM) was 49% and the “HCT-116 % Inhibition at 0.1 μM” value (HCT-116 cell line; HCT-116 cells, at 0.1 μM) was 0%. The “HCT-116 5 Inhibition at 0.25 μM” value (HCT-116 cell line; HCT-116 cells) was 48.

Work on `Cn1cnc(-c2ccc(S(=O)(=O)N3CCC(Nc4nc(N)c(C(=O)c5c(F)cccc5F)s4)CC3)cn2)c1` [Example I5, Hydrochloride] yielded a pKi [1] of 9.17, a pKi (CDK2/Cyclin A) of 8.29 and a pIC50 (HCT-116 cell line; first HCT-116 column (c4)) of 7.10. For the same compound, the pIC50 (HCT-116 cell line; second HCT-116 column (c5)) was 6.30.

`CC(=O)OC(C(=O)N1CCC(Nc2nc(N)c(C(=O)c3c(F)cccc3F)s2)CC1)c1ccccc1` (stereo not shown) [Example Q40] was tested, and the “CDK4 % Inhibition at 0.03 μM” value ([1]; 0.03 μM compound, Table 4) was 7%, the “CDK2 % Inhibition at 0.03 μM” value (CDK2/Cyclin A; 0.03 μM compound, Table 4) was −5% and the “HCT-116 % Inhibition at 0.1 μM” value (HCT-116 cell line; [2]) was 0%. The “HCT-116 % Inhibition at 0.25 μM” value (HCT-116 cell line; HCT-116, Table 4) was 20%.

`COc1ccc(NC(=O)N2CCC(Nc3nc(N)c(C(=O)c4c(F)cccc4F)s3)CC2)cc1` [Example O84] was tested, and the “CDK4 % Inhibition at 0.03 μM” value ([1]; 0.03 μM compound, Table 2, 0.03 µM) was 14%, the “CDK2 % Inhibition At 0.03 μM” value (CDK2/Cyclin A; 0.03 μM compound, 0.03 µM) was 23% and the “HCT-116 % Inhibition at 0.25 μM” value (HCT-116 cell line; HCT-116, Table 2, 0.25 µM) was 42%.

`CC(=O)c1ccc(NC(=O)N2CCC(Nc3nc(N)c(C(=O)c4c(F)cccc4F)s3)CC2)cc1` [Example O53] was tested, and the “CDK4 % Inhibition at 0.03 μM” value ([1]; 0.03 μM compound, Table 2) was 11%, the “CDK2 % Inhibition At 0.03 μM” value (CDK2/Cyclin A; 0.03 μM compound) was 30% and the “HCT-116 % Inhibition at 0.25 μM” value (HCT-116 cell line; HCT-116, Table 2) was 41%.

In the case of `Cc1noc(C)c1C(=O)N1CCC(Nc2nc(N)c(C(=O)c3c(F)cccc3F)s2)CC1` [Example R25], the “CDK4 % Inhibition at 0.03 μM” value ([1]; at 0.03 μM) was 22%, the “CDK2 % Inhibition at 0.03 μM” value (CDK2/Cyclin A; at 0.03 μM) was −9% and the “HCT-116 % Inhibition at 0.1 μM” value (HCT-116 cell line; HCT-116 cells, at 0.1 μM) was 0%. The “HCT-116 5 Inhibition at 0.25 μM” value (HCT-116 cell line; HCT-116 cells) was 43.

In the case of `Nc1nc(NC2CCN(C(=O)c3cccc([N+](=O)[O-])c3)CC2)sc1C(=O)c1c(F)cccc1F` [Example Q69], the “CDK4 % Inhibition at 0.03 μM” value ([1]; 0.03 μM compound, Table 4) was 80%, the “CDK2 % Inhibition at 0.03 μM” value (CDK2/Cyclin A; 0.03 μM compound, Table 4) was 54% and the “HCT-116 % Inhibition at 0.1 μM” value (HCT-116 cell line; [2]) was 1%. For the same compound, the “HCT-116 % Inhibition at 0.25 μM” value (HCT-116 cell line; HCT-116, Table 4) was 24%.

Compound `N#Cc1ccc(S(=O)(=O)N2CCC(Nc3nc(N)c(C(=O)c4c(F)cccc4F)s3)C2)cc1` (stereo not shown) [Example F38, 4-{3-[4-Amino-5-(2,6-difluoro-benzoyl)-thiazol-2-ylamino]-pyrrolidine-1-sulfonyl}-benzonitrile] has a pKi [1] of 6.44 and a pKi (CDK2/Cyclin A) of 7.00.

For `C[C@@H](NC(=O)N1CCC(Nc2nc(N)c(C(=O)c3c(F)cccc3F)s2)CC1)c1ccccc1` [Example B3, 4-[4-Amino-5-(2,6-difluoro-benzoyl)-thiazol-2-ylamino]-piperidine-1-carboxylic Acid (1R-Phenyl-ethyl)-amide], the pKi [1] was 6.38 and the pKi (CDK2/Cyclin A) was 6.72.

`Nc1nc(NC2CCN(S(=O)(=O)c3cncc(Cl)n3)CC2)sc1C(=O)c1c(F)cccc1F` [Example F49, {4-Amino-2-[1-(6-chloro-pyrazine-2-sulfonyl)-piperidin-4-ylamino]-thiazol-5-yl}-(2,6-difluoro-phenyl)-methanone] showed a pKi [1] of 8.96 and a pKi (CDK2/Cyclin A) of 9.34.
